# Measured values from ChEMBL document CHEMBL1150338, “Prediction and identification of drug interactions with the human ATP-binding cassette transporter multidrug-resistance associated protein 2 (MRP2; ABCC2)” (J Med Chem, 2008).
# What was measured:
# MRP2 (ABCC2) = MRP2 (ABCC2) (Homo sapiens, UniProt Q92887); assay: in vitro;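 also: Inside-out membrane vesicles from Sf9 insect cells expressing human MRP2, measuring uptake of the estradiol glucuronide substrate, expressed as percent of untreated control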
# Description: Effect on human MRP2-mediated estradiol-17-beta-glucuronide transport in Sf9 cells inverted membrane vesicles relative to control
# [1] = target: ATP-binding cassette sub-family C member 2 (Homo sapiens, UniProt Q92887); assay: Inhibition of human MRP2-mediated estradiol-17-beta-glucuronide transport in Sf9 cells inverted membrane vesicles
# [2] = probe estradiol-17-beta-glucuronide
# Chain of MRP2 (ABCC2) (Q92887 whole entry): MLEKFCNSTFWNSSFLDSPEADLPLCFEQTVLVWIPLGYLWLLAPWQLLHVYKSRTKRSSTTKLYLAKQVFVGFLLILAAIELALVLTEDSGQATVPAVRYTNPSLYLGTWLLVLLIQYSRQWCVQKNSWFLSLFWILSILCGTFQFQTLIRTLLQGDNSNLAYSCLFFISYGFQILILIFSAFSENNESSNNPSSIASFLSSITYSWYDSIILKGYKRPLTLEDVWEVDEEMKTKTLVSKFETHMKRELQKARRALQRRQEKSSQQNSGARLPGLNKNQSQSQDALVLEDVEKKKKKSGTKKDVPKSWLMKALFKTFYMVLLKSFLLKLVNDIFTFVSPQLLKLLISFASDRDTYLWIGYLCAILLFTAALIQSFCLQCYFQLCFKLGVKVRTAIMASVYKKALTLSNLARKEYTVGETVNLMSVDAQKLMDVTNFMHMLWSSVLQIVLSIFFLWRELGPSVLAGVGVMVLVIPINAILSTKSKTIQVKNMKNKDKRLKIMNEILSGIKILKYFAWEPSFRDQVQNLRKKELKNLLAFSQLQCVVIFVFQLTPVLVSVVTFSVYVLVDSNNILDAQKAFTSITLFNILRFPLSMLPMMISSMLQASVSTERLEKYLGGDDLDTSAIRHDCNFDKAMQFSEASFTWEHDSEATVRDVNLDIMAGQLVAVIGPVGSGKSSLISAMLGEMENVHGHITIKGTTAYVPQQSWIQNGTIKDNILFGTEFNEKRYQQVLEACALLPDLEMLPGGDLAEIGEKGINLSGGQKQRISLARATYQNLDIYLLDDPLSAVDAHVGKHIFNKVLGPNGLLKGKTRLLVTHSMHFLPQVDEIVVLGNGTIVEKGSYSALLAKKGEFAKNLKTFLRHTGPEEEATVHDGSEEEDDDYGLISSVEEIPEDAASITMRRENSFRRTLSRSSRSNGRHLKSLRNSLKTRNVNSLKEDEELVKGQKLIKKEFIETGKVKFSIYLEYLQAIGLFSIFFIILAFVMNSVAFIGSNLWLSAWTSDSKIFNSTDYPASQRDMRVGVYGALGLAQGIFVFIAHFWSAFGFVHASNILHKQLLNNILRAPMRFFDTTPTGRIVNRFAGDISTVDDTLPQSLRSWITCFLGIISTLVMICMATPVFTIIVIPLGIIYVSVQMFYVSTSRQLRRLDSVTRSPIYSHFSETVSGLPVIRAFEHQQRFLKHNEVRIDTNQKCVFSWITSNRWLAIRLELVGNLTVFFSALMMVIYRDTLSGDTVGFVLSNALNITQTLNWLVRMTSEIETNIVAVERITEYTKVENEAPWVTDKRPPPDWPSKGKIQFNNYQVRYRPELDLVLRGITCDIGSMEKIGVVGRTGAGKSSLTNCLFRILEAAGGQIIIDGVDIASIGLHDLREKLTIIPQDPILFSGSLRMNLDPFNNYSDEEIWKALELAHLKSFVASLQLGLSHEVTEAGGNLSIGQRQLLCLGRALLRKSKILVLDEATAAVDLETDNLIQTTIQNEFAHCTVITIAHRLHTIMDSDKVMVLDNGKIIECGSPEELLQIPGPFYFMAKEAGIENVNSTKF
# Chain of ATP-binding cassette sub-family C member 2 (Q92887 whole entry): as above
Structure (SMILES),activity (MRP2 (ABCC2); [2]) [%],other results
COc1cc2ncnc(Nc3ccc(F)c(Cl)c3)c2cc1OCCCN1CCOCC1 [GEFITINIB],–,activity (MRP2 (ABCC2); sf9): 74%
CC(C)[C@@H]1NC(=O)[C@H](CCCCN)NC(=O)[C@@H](Cc2c[nH]c3ccccc23)NC(=O)[C@H](Cc2ccc(O)cc2)NC(=O)[C@H](C)N(C)C(=O)[C@H](Cc2ccccc2)NC1=O [SEGLITIDE],94,–
CC(C)[C@@]1(NC(=O)[C@@H]2C=C3c4cccc5[nH]cc(c45)C[C@H]3N(C)C2)O[C@@]2(O)[C@@H]3CCCN3C(=O)[C@H](Cc3ccccc3)N2C1=O [ERGOCRISTINE],60,–
CCC1(c2ccccc2)C(=O)NC(=O)NC1=O [PHENOBARBITAL],98,–
NC12CC3CC(CC(C3)C1)C2 [AMANTADINE],101,–
CC[C@H](C)C(=O)O[C@H]1C[C@H](O)C=C2C=C[C@H](C)[C@H](CC[C@@H](O)C[C@@H](O)CC(=O)O)[C@H]21 [PRAVASTATIN],135,–
O=c1cc(-c2ccc(O)cc2)oc2cc(O)cc(O)c12 [APIGENIN],94,–
O=C1C[C@@H](c2ccc(O)cc2)Oc2cc(O)cc(O)c21 [NARINGENIN],207,–
CN(C)C(=O)CCSC(SCCC(=O)O)c1cccc(/C=C/c2ccc3ccc(Cl)cc3n2)c1 (configuration not stated) [MK-571],–,IC50 [1]: 10 µM; activity (MRP2 (ABCC2); sf9): 9%
Cc1ccc(N(CC(=O)O)CC(=O)O)c(OCCOc2cc(-c3c4cc(Cl)c(=O)cc-4oc4cc(O)c(Cl)cc34)ccc2N(CC(=O)O)CC(=O)O)c1,9,–
COc1cc2nc(N3CCN(C(=O)C4CCCO4)CC3)nc(N)c2cc1OC (configuration not stated) [TERAZOSIN],–,activity (MRP2 (ABCC2); sf9): 94%
CNC(=O)c1cccnc1 [NICOTINYL METHYLAMIDE],101,–
CC(C)(C)NC(=O)[C@@H]1C[C@@H]2CCCC[C@@H]2CN1C[C@@H](O)[C@H](Cc1ccccc1)NC(=O)[C@H](CC(N)=O)NC(=O)c1ccc2ccccc2n1,41,–
CCCN(CCC)S(=O)(=O)c1ccc(C(=O)O)cc1 [PROBENECID],110,–
O=c1c(O)c(-c2ccc(O)c(O)c2)oc2cc(O)cc(O)c12 [QUERCETIN],40,–
CC(=O)S[C@@H]1CC2=CC(=O)CC[C@]2(C)[C@H]2CC[C@@]3(C)[C@@H](CC[C@@]34CCC(=O)O4)[C@H]12 [SPIRONOLACTONE],125,–
COc1ccc(Cl)cc1C(=O)NCCc1ccc(S(=O)(=O)NC(=O)NC2CCCCC2)cc1 [GLYBURIDE],304,–
O=C(O)[C@H]1O[C@@H](Oc2cc3oc(-c4ccccc4)cc(=O)c3c(O)c2O)[C@H](O)[C@@H](O)[C@@H]1O [BAICALIN],34,–
NS(=O)(=O)c1cc(C(=O)O)c(NCc2ccco2)cc1Cl [FUROSEMIDE],118,–
Cc1ccc(S(=O)(=O)NC(=O)NN2CC3CCCC3C2)cc1 (configuration not stated) [GLICLAZIDE],174,–
CC(NCCC(c1ccccc1)c1ccccc1)c1ccccc1 (configuration not stated) [FENDILINE],5,–
